Results as given in patent publication US5707966A, “Antithrombotic agents” (Eli Lilly and Company, priority 1995, dated 1998).
Structures can show the parent of a compound that is named as a salt. Where two headings read alike, the source gives them in different places.

Columns and labels:
Assay type in all cases: biochemical
Human plasma [1] = test: Human plasma anticoagulation, thrombin time (TT); conditions: concentration required to double the thrombin time, linear extrapolation
Method: (§1) Dog plasma and rat plasma is obtained from conscious mixed-breed hounds (either sex, Hazelton-LRE, Kalamazoo, Mich., U.S.A.) or from anesthetized male Sprague-Dawley rats (Harlan Sprague-Dawley, Inc., Indianapolis, Ind., U.S.A.) by venipuncture into 3.8 percent citrate. Fibrinogen is prepared from in-date ACD human blood as the fraction I-2 according to previous procedures and specifications. […] Human fibrinogen is also purchased as 98 percent pure/plasmin free from American Diagnostica, Greenwich, Conn. Coagulation reagents ACTIN, Thromboplastin, and Human plasma are from Baxter Healthcare Corp., Dade Division, Miami, Fla. Bovine thrombin from Parke-Davis ([…], Mich.) is used for coagulation assays in plasma.
(§2) Coagulation assay procedures are as previously described. […] A CoAScreener coagulation instrument (American LABor, Inc.) is used for all coagulation assay measurements. The prothrombin time (PT) is measured by adding 0.05 mL saline and 0.05 mL Thromboplastin-C reagent to 0.05 mL test plasma. The activated partial thromboplastin time (APTT) is measured by incubation of 0.05 mL test plasma with 0.05 mL Actin reagent for 120 seconds followed by 0.05 mL CaCl2 (0.02M). The thrombin time (TT) is measured by adding 0.05 mL saline and 0.05 mL thrombin (10 NIH units/mL) to 0.05 mL test plasma. The compounds of Formula I are added to human or animal plasma over a wide range of concentrations to determine prolongation effects on the APTT, PT, and TT assays. Linear extrapolations are performed to estimate the concentrations required to double the clotting time for each assay.

Bovine trypsin = biological target: T1, Bovine trypsin (Bos taurus, UniProt P00760); test: Kass with trypsin, chromogenic substrate; conditions: substrate N-Benzoyl-Phe-Val-Arg-p-nitroanilide
T1 construct: Bovine trypsin is purchased; purchased Worthington Biochemicals, Freehold, N.J
T1 sequence (P00760 24-246): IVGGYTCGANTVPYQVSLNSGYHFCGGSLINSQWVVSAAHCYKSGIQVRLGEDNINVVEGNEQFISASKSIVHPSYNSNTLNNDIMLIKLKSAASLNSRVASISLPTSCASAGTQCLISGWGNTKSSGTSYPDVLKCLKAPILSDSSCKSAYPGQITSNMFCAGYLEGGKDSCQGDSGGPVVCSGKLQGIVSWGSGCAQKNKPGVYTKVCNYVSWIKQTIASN
Method: By substantially following the procedures described above for human thrombin, and using other human blood coagulation system serine proteases and proteases of the fibrinolytic system with the appropriate chromogenic substrates, identified below, selectivity of the compounds of the present invention with respect to the coagulation factor serine proteases and with respect to the fibrinolytic system serine proteases are evaluated as well as their substantial lack of interference with serine proteases of the fibrinolytic system. Thrombin inhibitors preferably should spare fibrinolysis induced by urokinase, tissue plasminogen activator (t-PA) and streptokinase. This would be important to the therapeutic use of such agents as an adjunct to streptokinase, t-PA or urokinase thrombolytic therapy and to the use of such agents as an endogenous fibrinolysis-sparing (with respect to t-PA and urokinase) antithrombotic agent. In addition to the lack of interference with the amidase activity of the fibrinolytic proteases, such fibrinolytic system sparing can be studied by the use of human plasma clots and their lysis by the respective fibrinolytic plasminogen activators.
Human factors X, Xa, IXa, XIa, and XIIa are purchased from Enzyme Research Laboratories, South Bend, Ind.; human urokinase from Leo Pharmaceuticals, Denmark; and recombinant activated Protein C (aPC) is prepared at Eli Lilly and Co. substantially according to U.S. Patent No. 4,981,952. Chromogenic substrates: N-Benzoyl-Ile-Glu-Gly-Arg-p-nitroanilide (for factor Xa); N-Cbz-D-Arg-Gly-Arg-p-nitroanilide (for factor IXa assay as the factor Xa substrate); Pyroglutamyl-Pro-Arg-p-nitroanilide (for Factor XIa and for aPC); H-D-Pro-Phe-Arg-p-nitroanilide (for factor XIIa); and Pyroglutamyl-Gly-Arg-p-nitroanilide (for urokinase); are purchased from KabiVitrum, Stockholm, Sweden, or from Midwest Biotech, Fishers, Ind. Bovine trypsin is purchased from Worthington Biochemicals, Freehold, N.J., and human plasma kallikrein from Kabi Vitrum, Stockholm, Sweden. Chromogenic substrate H-D-Pro-Phe-Arg-p-nitroanilide for plasma kallikrein is purchased from Kabi Vitrum, Stockholm, Sweden. N-Benzoyl-Phe-Val-Arg-p-nitroanilide, the substrate for human thrombin and for trypsin, is synthesized according to procedures described above for the compounds of the present invention, using known methods of peptide coupling from commercially available reactants or purchased from Midwest Biotech, Fishers, Ind.

Human plasma [2] = test: Human plasma anticoagulation, prothrombin time (PT); conditions: concentration required to double the PT, linear extrapolation
Method: as §1, §2

Human Thrombin = Human Thrombin (Homo sapiens, UniProt P00734); test: Inhibition of amidase activity of thrombin (Kass)
Human plasma [3] = test: Human plasma anticoagulation, activated partial thromboplastin time (APTT); conditions: concentration required to double the APTT, linear extrapolation
Method: as §1, §2

[4] = mean over a range of concentrations, […]

Compound	Kass Trypsin (Bovine trypsin)	Kass Human Thrombin (Human Thrombin; [4])	Human Plasma Anticoagulation 2× Clotting time TT (Human plasma [1])	Human Plasma Anticoagulation 2× Clotting time PT (Human plasma [2])	Human Plasma Anticoagulation 2× Clotting time APTT (Human plasma [3])	Kass Human Thrombin (Human Thrombin)
NCC1CCC(CNC(=O)[C@@H]2CCCN2C(=O)[C@@H](CC2CCCCC2)NCC(=O)O)CC1 (stereo partly drawn) [Example 79, HO2 CCH2 -D-Cha-Pro-4-NHCH2 C6 H10 CH2 NH2.HCl]	0.24 × 10^6 (L/mole)	2.0 × 10^6 (L/mole)	140 ng/mL	2,400 ng/mL	1,700 ng/mL	
N=C(N)c1ccc(CNC(=O)[C@@H]2CCCN2C(=O)[C@@H](CC2CCCCC2)NCCCC(=O)O)cc1 [Example 85, HOOCCH2 CH2 CH2 -D-Cha-pro-p-NHCH2 C6 H4 C(NH)NH2.HCl]	30.8 × 10^6 (L/mole)	265 × 10^6 (L/mole)	4.9 ng/mL	197 ng/mL	100 ng/mL	
CCS(=O)(=O)N[C@H](Cc1ccccc1)C(=O)N1CCC[C@H]1C(=O)NCCc1cccc(NC(=N)N)c1 [Example 37, EtSO2 -D-Phe-Pro-m-NHCH2 CH2 C6 H4 NHC(NH)NH2.HCl]	< 0.009 × 10^6 (L/mole)	0.02 × 10^6 (L/mole)	> 9,000 ng/mL	> 9,000 ng/mL	> 9,000 ng/mL	
N=C(N)N1CC=C(CNC(=O)[C@@H]2CCCN2C(=O)[C@@H](CC2CCCCC2)NCC(=O)O)CC1 [Example 70, HO2 CCH2 -D-Cha-Pro-4-NHCH2 -1-amidino-3,4-dehydro-piperidine.HCl]	9.8 × 10^6 (L/mole)	430 × 10^6 (L/mole)	2 ng/mL	180 ng/mL	160 ng/mL	
N=C(N)c1ccc(CNC(=O)[C@@H]2CCCN2C(=O)[C@@H](CC2CCCCC2)NCC(=O)O)c(F)c1 [Example 71, HO2 CCH2 -D-Cha-Pro-4-NHCH2 -3-F-benzamidine.HCl]	240 × 10^6 (L/mole)	1,400 × 10^6 (L/mole)	1 ng/mL	150 ng/mL	89 ng/mL	
N=C(N)c1cc(F)c(CNC(=O)[C@@H]2CCCN2C(=O)[C@@H](CC2CCCCC2)NCC(=O)O)c(F)c1 [Example 72, HO2 CCH2 -D-Cha-Pro-4-NHCH2 -3,5-F2 -benzamidine.HCl]	280 × 10^6 (L/mole)	2,300 × 10^6 (L/mole)	1 ng/mL	160 ng/mL	160 ng/mL	
Cl.N=C(N)c1cc(CNC(=O)[C@@H]2CCCN2C(=O)[C@@H](CC2CCCCC2)NCC(=O)O)cs1 [Example 65, HO2 CCH2 -D-Cha-pro-4-NHCH2-2-amidinothiophene.HCl]	570 × 10^6 (L/mole)	4,500 × 10^6 (L/mole)	1 ng/mL		48 ng/mL	
Nc1ccc(CNC(=O)[C@@H]2CCCN2C(=O)[C@@H](CC2CCCCC2)NCC(=O)O)cc1F [Example 77, HO2 CCH2 -D-Cha-Pro-4-NHCH2 -2-F-aniline.HCl]			53 ng/mL	890 ng/mL	1,600 ng/mL	11
N=C(N)C1=CNC(CNC(=O)[C@@H]2CCCN2C(=O)[C@@H](CC2CCCCC2)NCC(=O)O)CC1 (stereo partly drawn) [Example 68, HO2 CCH2 -D-Cha-Pro-2-NHCH2 -5-amidino-5,6-dehydro-piperidine.HCl]		600 × 10^6 (L/mole)	4 ng/mL	190 ng/mL	49 ng/mL	
N=C(N)C1CCC(CNC(=O)[C@@H]2CCCN2C(=O)[C@@H](CC2CCCCC2)NCC(=O)O)NC1 (stereo partly drawn) [Example 67, HO2 CCH2 -D-Cha-pro-2-NHCH2-5-amidinopiperidine.HCl]			34 ng/mL	1,300 ng/mL	1,800 ng/mL	11
CCS(=O)(=O)N[C@H](CC1CCCCC1)C(=O)N1CCC[C@H]1C(=O)NCc1ccc(N)cc1F [Example 82, EtSO2 -D-Cha-Pro-4-NHCH2 -3-F-C6 H3 NH2.HCl]		5.0 × 10^6 (L/mole)	130 ng/mL	3,000 ng/mL	3,800 ng/mL	

Second part, led by results:

Kass Trypsin (Bovine trypsin)	Kass Human Thrombin (Human Thrombin; [4])	Compound	Human Plasma Anticoagulation 2× Clotting time TT (Human plasma [1])	Human Plasma Anticoagulation 2× Clotting time PT (Human plasma [2])	Human Plasma Anticoagulation 2× Clotting time APTT (Human plasma [3])	Kass Human Thrombin (Human Thrombin)
4.6 × 10^6 (L/mole)	120 × 10^6 (L/mole)	N=C(N)c1ccc(CNC(=O)[C@@H]2CCCN2C(=O)[C@@H](CC2CCCCC2)NCC(=O)O)nc1 [Example 66, HO2 CCH2 -D-Cha-Pro-2-NHCH2 -5-amidinopyridine.HCl]	7.9 ng/mL	270 ng/mL	180 ng/mL	
	0.31 × 10^6 (L/mole)	Nc1ccc(CCNC(=O)[C@@H]2CCCN2C(=O)[C@@H](CC2CCCCC2)NCC(=O)O)cc1 [Example 63, HO2 CCH2 -D-Cha-Pro-4-NHCH2 CH2 C6 H4 NH2.HCl]	680 ng/mL			
	29 × 10^6 (L/mole)	Nc1ccc(CNC(=O)[C@@H]2CCCN2C(=O)[C@@H](CC2CCCCC2)NCC(=O)O)cn1 [Example 74, HO2 CCH2 -D-Cha-Pro-5-NHCH2 -2-aminopyridine.HCl]	20 ng/mL	350 ng/mL	420 ng/mL	
	7.6 × 10^6 (L/mole)	Nc1ccc(CNC(=O)[C@@H]2CCCN2C(=O)[C@@H](CC2CCCCC2)NCC(=O)O)cc1 [Example 62, HO2 CCH2 -D-Cha-Pro-4-NHCH2 C6 H4 NH2.HCl]	54 ng/mL			
	28 × 10^6 (L/mole)	Nc1cc(CNC(=O)[C@@H]2CCCN2C(=O)[C@@H](CC2CCCCC2)NCC(=O)O)ccn1 [Example 73, HO2 CCH2 -D-Cha-Pro-4-NHCH2 -2-aminopyridine.HCl]	21 ng/mL	330 ng/mL	340 ng/mL	
	0.45 × 10^6 (L/mole)	Nc1ccc(CCNC(=O)[C@@H]2CCCN2C(=O)[C@@H](CC2CCCCC2)NCC(=O)O)cn1 [Example 75, HO2 CCH2 -D-Cha-Pro-5-NHCH2 CH2 -2-aminopyridine.HCl]				
